From patent US20240150293A1, “SPIROCYCLOHEXANE DERIVATIVES, PHARMACEUTICAL COMPOSITIONS CONTAINING THEM AND THEIR USES AS ANTI-APOPTOTIC INHIBITORS” (LES LABORATOIRES SERVIER, priority 2021, published 2024)

Each molecule was assayed against Mcl-1 protein (UniProtKB Q07820) (Homo sapiens (Human), UniProt Q07820) (assay: Inhibition of Mcl-1 by the fluorescence polarisation assay (Example A, Method A)). Conditions: fluorescence polarization assay.
Assay type: binding
Protocol: The relative binding potency of each compound was determined via Fluorescence Polarisation (FP). The method utilised a Fluorescein labelled ligand (Fluorescein-βAla-Ahx-A-REIGAQLRRMADDLNAQY-OH; MW 2,765) which binds to the Mcl-1 protein (such that Mcl-1 corresponds to the UniProtKB® primary accession number: Q07820) leading to an increased anisotropy measured in milli-polarisation (mP) units using a reader. The addition of a compound which binds competitively to the same site as the ligand will result in a greater proportion of unbound ligand in the system indicated by a decrease in mP units.
An 11 point serial dilution of each compound was prepared in DMSO and 2 μl transferred into flat bottomed, low binding, 384-well plate (final DMSO concentration 5%). 38 μl of buffer containing the Fluorescein labelled ligand (final concentration 1 nM) and Mcl-1 protein (final concentration 5 nM) was then added. Buffer components were 10 mM 4-(2-hydroxyethyl)-1-piperazineethanesulfonic acid [HEPES], 150 mM NaCl, pH 7.4 with the addition of 0.05% Tween 20.
Assay plates were incubated for 2 hours at room temperature before FP was measured on a […] Synergy Neo reader ([…], Cut off 510 nm) and mP units calculated. The binding of increasing doses of test compound was expressed as a percentage reduction in mP compared to a window established between ‘5% DMSO only’ and ‘100% inhibition’ controls. 11-point dose response curves were plotted with XL-Fit software using a 4-Parameter Logistic Model (Sigmoidal Dose-Response Model) and the inhibitory concentrations that gave a 50% reduction in mP (IC50) were determined. The Ki values were determined from the IC50 values according to Cer et al, Nucleic Acids Res, 2009, 37 (WebServer issue): W441-W445. Inhibition constants (Ki) are determined from complete binding inhibition curves (cKi) or from estimated from incomplete binding inhibition curves (eKi) in most cases due to low activity.

Chain of Mcl-1 protein (Q07820 whole entry): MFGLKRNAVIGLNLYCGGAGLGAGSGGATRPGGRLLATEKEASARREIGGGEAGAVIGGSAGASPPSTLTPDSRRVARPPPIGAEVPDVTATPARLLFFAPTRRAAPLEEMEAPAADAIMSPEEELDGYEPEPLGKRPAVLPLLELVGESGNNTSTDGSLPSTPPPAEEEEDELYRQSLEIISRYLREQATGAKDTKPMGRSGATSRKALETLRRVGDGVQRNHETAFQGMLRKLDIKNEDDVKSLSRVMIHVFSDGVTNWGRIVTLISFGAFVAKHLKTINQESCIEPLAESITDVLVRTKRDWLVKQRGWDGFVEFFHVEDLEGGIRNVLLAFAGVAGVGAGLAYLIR

Row | Compound | Ki [nM]
1 | COc1cc(OC)cc(C2=Cc3ccccc3C23CCC(Nc2cccc(Br)c2)(C(=O)O)CC3)c1 (single isomer, unassigned) [Example 237, 4-(3-bromoanilino)-2′-(3,5-dimethoxyphenyl)spiro[cyclohexane-1,1′-indene]-4-carboxylic acid] | 89000
2 | COc1cccc(N[C@]2(C(=O)O)CC[C@@]3(CC2)C(Br)=Cc2ccccc23)c1 [Example 86, (1s,4s)-2′-bromo-4-(3-methoxyanilino)spiro[cyclohexane-1,1′-indene]-4-carboxylic acid] | 4100
3 | O=C(O)[C@]1(Nc2cccc(Cl)c2)CC[C@@]2(CC1)c1ccccc1C[C@@H]2c1ccc(Oc2ccccc2)cc1 [Example 359, (1r,2′R,4R)-4-(3-chloroanilino)-2′-(4-phenoxyphenyl)-2′,3′-dihydrospiro[cyclohexane-1,1′-indene]-4-carboxylic acid] | 2140
4 | O=C(O)[C@]1(Nc2cccc(Br)c2)CC[C@@]2(CC1)C(=O)Nc1ccccc12 [Example 1, (1r,4r)-4-(3-bromoanilino)-2′-oxo-1′,2′-dihydrospiro[cyclohexane-1,3′-indole]-4-carboxylic acid] | 23300
5 | O=C(O)C1(Nc2cccc(Br)c2)CCC2(CC1)c1ccccc1-c1ccccc12 [Example 117, 4-[(3-bromophenyl)amino]spiro[cyclohexane-1,9′-fluorene]-4-carboxylic acid] | 5760
6 | O=C(O)[C@]1(Nc2cccc(Cl)c2)CC[C@]2(C=Cc3ccccc32)CC1 [Example 65, (1s,4s)-4-(3-chloroanilino)spiro[cyclohexane-1,1′-indene]-4-carboxylic acid] | 4990
7 | O=C(O)[C@]1(Nc2cccc(Cl)c2)CC[C@]2(CC1)C(C1CN(Cc3c(F)ccc(F)c3F)C1)=Cc1ccccc12 [Example 99, (1r,4r)-4-(3-chloroanilino)-2′-{1-[(2,3,6-trifluorophenyl)methyl]azetidin-3-yl}spiro[cyclohexane-1,1′-indene]-4-carboxylic acid] | 2860
8 | O=C(NCCc1ccncc1)C1=Cc2ccccc2[C@]12CC[C@@](Nc1cccc(Cl)c1)(C(=O)O)CC2 [Example 402, (1s,4s)-4-(3-chloroanilino)-2′-{[2-(pyridin-4-yl)ethyl]carbamoyl}spiro[cyclohexane-1,1′-indene]-4-carboxylic acid] | 18800
9 | O=C(O)C1(Nc2cccc(Br)c2)CCC2(CC1)c1ccccc1CC2c1nccs1 (single isomer, unassigned) [Example 223, 4-(3-bromoanilino)-2′-(1,3-thiazol-2-yl)-2′,3′-dihydrospiro[cyclohexane-1,1′-indene]-4-carboxylic acid] | 14300
10 | O=C(O)[C@]1(Nc2cccc(O)c2)CC[C@]2(CC1)C(Br)=Cc1ccccc12 [Example 84, (1s,4s)-2′-bromo-4-(3-hydroxyanilino)spiro[cyclohexane-1,1′-indene]-4-carboxylic acid] | 7220
11 | Cc1cc(C)cc(C2=Cc3ccccc3C23CCC(Nc2cccc(Br)c2)(C(=O)O)CC3)c1 (single isomer, unassigned) [Example 238, 4-(3-bromoanilino)-2′-(3,5-dimethylphenyl)spiro[cyclohexane-1,1′-indene]-4-carboxylic acid] | 57800
12 | O=C(O)[C@]1(Nc2cccc(C(F)F)c2)CC[C@]2(CC1)C(Br)=Cc1ccccc12 [Example 83, (1s,4s)-2′-bromo-4-[3-(difluoromethyl)anilino]spiro[cyclohexane-1,1′-indene]-4-carboxylic acid] | 1360
13 | COc1ccc(Cl)c(C2=Cc3ccccc3[C@]23CC[C@@](Nc2cccc(Cl)c2)(C(=O)O)CC3)c1 [Example 246, (1s,4s)-4-(3-chloroanilino)-2′-(2-chloro-5-methoxyphenyl)spiro[cyclohexane-1,1′-indene]-4-carboxylic acid] | 4200

Now those with a lower Ki, led by results:

Row | Ki [nM] | Compound
14 | 839 | O=C(O)[C@]1(Nc2cccc(Cl)c2)CC[C@]2(CC1)C(c1cccc(C(F)(F)F)c1)=Cc1ccccc12 [Example 312, (1s,4s)-4-(3-chloroanilino)-2′-[3-(trifluoromethyl)phenyl]spiro[cyclohexane-1,1′-indene]-4-carboxylic acid]
15 | 809 | Cn1ccc(OCCCC2Cc3ccccc3[C@]23CC[C@@](Nc2cccc(Cl)c2)(C(=O)O)CC3)cc1=O (stereo partly shown) [Example 479, (1r,4r)-4-(3-chloroanilino)-2′-{3-[(1-methyl-2-oxo-1,2-dihydropyridin-4-yl)oxy]propyl}-2′,3′-dihydrospiro[cyclohexane-1,1′-indene]-4-carboxylic acid]
16 | 745 | O=C(O)[C@]1(Nc2cccc(Cl)c2)CC[C@@]2(CC1)c1ccccc1CC2[C@H]1C[C@@H]1COc1ccccc1 (relative stereo) [Example 109, (1r,4r)-4-(3-chloroanilino)-2′-[(1R*,2S*)-2-(phenoxymethyl)cyclopropyl]-2′,3′-dihydrospiro[cyclohexane-1,1′-indene]-4-carboxylic acid]
17 | 710 | COc1ccc(CCCC2=Cc3ccccc3[C@]23CC[C@@](Nc2cccc(Cl)c2)(C(=O)O)CC3)cc1 [Example 155, (1r,4r)-4-(3-chloroanilino)-2′-[3-(4-methoxyphenyl)propyl]spiro[cyclohexane-1,1′-indene]-4-carboxylic acid]
18 | 679 | O=C(O)[C@]1(Nc2cccc(Br)c2)CC[C@@]2(CC1)c1ccccc1CC2CCc1cccc2[nH]ccc12 (stereo partly shown) [Example 163, (1r,4r)-4-(3-bromoanilino)-2′-[2-(1H-indol-4-yl)ethyl]-2′,3′-dihydrospiro[cyclohexane-1,1′-indene]-4-carboxylic acid]
19 | 583 | Cc1cccc(CCOCC2=Cc3ccccc3[C@]23CC[C@@](Nc2cccc(Cl)c2)(C(=O)O)CC3)c1 [Example 411, (1s,4s)-4-(3-chloroanilino)-2′-{[2-(3-methylphenyl)ethoxy]methyl}spiro[cyclohexane-1,1′-indene]-4-carboxylic acid]
20 | 546 | COCCOc1cccc(C2=Cc3ccccc3[C@]23CC[C@@](Nc2cccc(Cl)c2)(C(=O)O)CC3)c1 [Example 315, (1s,4s)-4-(3-chloroanilino)-2′-[3-(2-methoxyethoxy)phenyl]spiro[cyclohexane-1,1′-indene]-4-carboxylic acid]
21 | 455 | O=C(O)[C@]1(Nc2cccc(Cl)c2)CC[C@]2(CC1)C(C#Cc1ccncc1)=Cc1ccccc12 [Example 173, (1s,4s)-4-(3-chloroanilino)-2′-[(pyridin-4-yl)ethynyl]spiro[cyclohexane-1,1′-indene]-4-carboxylic acid]
22 | 300 | O=C(O)[C@]1(Nc2cccc(Cl)c2)CC[C@]2(CC1)C(COCCc1ccccc1Cl)=Cc1ccccc12 [Example 419, (1s,4s)-4-(3-chloroanilino)-2′-{[2-(2-chlorophenyl)ethoxy]methyl}spiro[cyclohexane-1,1′-indene]-4-carboxylic acid]
23 | 299 | O=C(O)[C@]1(Nc2cccc(Cl)c2)CC[C@@]2(CC1)c1ccccc1CC2CCCSc1ccncc1 (stereo partly shown) [Example 399, (1r,4r)-4-(3-chloroanilino)-2′-{3-[(pyridin-4-yl)sulfanyl]propyl}-2′,3′-dihydrospiro[cyclohexane-1,1′-indene]-4-carboxylic acid]
24 | 284 | O=C(O)[C@]1(Nc2cccc(Cl)c2)CC[C@]2(CC1)C(I)=Cc1ccccc12 [Example 76, (1s,4s)-4-(3-chloroanilino)-2′-iodospiro[cyclohexane-1,1′-indene]-4-carboxylic acid]
25 | 259 | COc1cc2c(cc1OC)[C@]1(CC[C@@](Nc3cccc(Cl)c3)(C(=O)O)CC1)C(Br)=C2 [Example 136, (1s,4s)-2′-bromo-4-(3-chloroanilino)-5′,6′-dimethoxyspiro[cyclohexane-1,1′-indene]-4-carboxylic acid]
26 | 214 | O=C(O)[C@]1(Nc2cccc(Cl)c2)CC[C@@]2(CC1)c1ccccc1CC2[C@H]1C[C@@H]1COc1ccnc2ccsc12 (single isomer, unassigned) [Example 103, (1r,4r)-4-(3-chloroanilino)-2′-[(1R*,2S*)-2-{[(thieno[3,2-b]pyridin-7-yl)oxy]methyl}cyclopropyl]-2′,3′-dihydrospiro[cyclohexane-1,1′-indene]-4-carboxylic acid]
27 | 185 | CC[C@H](COc1cccnc1)C[C@H]1Cc2ccccc2[C@]12CC[C@@](Nc1cccc(Cl)c1)(C(=O)O)CC2 [Example 540, (1r,2′S,4S)-4-(3-chloroanilino)-2′-[(2S)-2-{[(pyridin-3-yl)oxy]methyl}butyl]-2′,3′-dihydrospiro[cyclohexane-1,1′-indene]-4-carboxylic acid]
28 | 99.2 | O=C(O)[C@]1(Nc2cccc(Cl)c2)CC[C@@]2(CC1)c1ccccc1CC2CCCOc1ccnc2c1CCC2O (stereo partly shown) [Example 475, (1r,4r)-4-(3-chloroanilino)-2′-{3-[(7-hydroxy-6,7-dihydro-5H-cyclopenta[b]pyridin-4-yl)oxy]propyl}-2′,3′-dihydrospiro[cyclohexane-1,1′-indene]-4-carboxylic acid]
